From patent US20060172023A1, “Use of pinolenic acid” (LODERS CROKLAAN B.V., priority 2005, published 2006) come the findings set out here.

Molecules are shown by their SMILES.

For the assay, the system named is enteroendocrine STC1-1 cell line. Put plainly: In-vitro relative CCK release from enteroendocrine cells (Example 4, RIA). The format is cell-based. Particulars: 100 μM in free fatty acid form, 1 hour; for Relative amount of CCK released: measured in 6-fold. As to the method: The relative CCK release by a number of different compounds was determined in vitro an in-vitro trial to measure the effect of various free fatty acids on CCK release from intestinal cells.
Cells were routinely passaged upon reaching 70-80% confluency by washing the cell layer with PBS and incubating with a solution of trypsin-EDTA. Plating density of 2×10^6 cells by 75 cm^2 was used for routine subculture.
STC1 cells were seeded into 6-well culture plates and incubated with control culture medium, with or without the tested agents, for 1 hour. All agents were tested at a 100 μM concentration in the free fatty acid form. Since fatty acids were diluted into ethanol the effect of ethanol was tested and indicated the baseline CCK levels. […] Effects of bombesin was used as positive control. At the end of incubation the supernatant was collected, centrifuged and immediately frozen at −20° C. for RIA.
Cell viability was checked by microscopic analysis, analyzing DNA content which was measured by fluorometry after extraction of the culture cell contents, and in addition LDH release was measured.
CCK release was measured using a standard CCK RIA and effects of fatty acids were measured in 6-fold.

Regarding `CCCCCCCCC=CCC/C=C\CCCC(=O)O` [taxoleic acid, cis-5,9 octadecadienoic acid], the “Ability to induce CCK (in words)” value was “not able to induce high amounts of CCK” and the “Level of CCK relative to negative control capric acid” value is listed as “about 2 fold”.

`CCCC/C=C/C=C/C=C\CCCCCCCC(=O)O` [Alpha-eleostearic acid 18:3, Alpha-eleostearic acid]: the “Ability to induce CCK (in words)” value is “good inducers of CCK” and the “Relative amount of CCK released” value was found to be 212.

Consider `CCCCCC=CC/C=C\CCCCCCCC(=O)O` [Linoleic acid 18:2, cis-9,12 octadecadienoic acid], for which the “Ability to induce CCK (in words)” value is given as “not able to induce high amounts of CCK”, the “Level of CCK relative to negative control capric acid” value is reported as “about 2 fold” and the “Relative amount of CCK released” value was determined as 68.

With `CC/C=C\C/C=C\C/C=C\CCCC/C=C\CCCC(=O)O` [juniperonic acid], the “Ability to induce CCK (in words)” value is reported as “not able to induce high amounts of CCK” and the “Level of CCK relative to negative control capric acid” value is given as “about 2 fold”.

In the case of `CCCCC/C=C\C/C=C\C/C=C\CCCCC(=O)O` [Gamma-linolenic acid 18:3, Gamma-linolenic acid], the “Ability to induce CCK (in words)” value is “good inducers of CCK” and the “Relative amount of CCK released” value worked out at 140.

For `CCCCCCCCCC(=O)O` [Capric acid], the “Relative amount of CCK released” value is reported as 43.

`CC/C=C\C/C=C\C/C=C\CCCCCCCC(=O)O` [Alpha-linolenic acid 18:3, Alpha-linolenic acid]: the “Ability to induce CCK (in words)” value is on record as “good inducers of CCK” and the “Relative amount of CCK released” value turned out to be 177.

`CCCCCCCC/C=C\CCCCCCCC(=O)O` [Oleic acid 18:1, cis-9 octadecenoic acid]: the “Ability to induce CCK (in words)” value is listed as “not able to induce high amounts of CCK”, the “Level of CCK relative to negative control capric acid” value is listed as “about 2 fold” and the “Relative amount of CCK released” value is 90.

Take `CCCCC/C=C\C/C=C\CCCC/C=C\CCCC(=O)O` [sciadonic acid]: the “Ability to induce CCK (in words)” value is recorded as “not able to induce high amounts of CCK” and the “Level of CCK relative to negative control capric acid” value is “about 2 fold”.

In the case of `CCCC\C=C/C=C/C=C\CCCCCCCC(=O)O` [Punicic acid 18:3, Punicic acid], the “Ability to induce CCK (in words)” value is recorded as “good inducers of CCK” and the “Relative amount of CCK released” value came out at 320.
